Each structure is given as a SMILES string.

The values that follow come from patent US12570957B2, “Isolated naive pluripotent stem cells and methods of generating same” (Yeda Research and Development Co. Ltd., priority 2013, dated 2026).

What all share (test): Pluripotency maintenance after supplementation of inhibitors or growth factors
The test system of one test is naive hESCs/hiPSCs. In kind it is cell-based. The following applies: naive human cells in WIS-NHSM. As to the method:
(§1) Shown are histograms depicting colony formation of pluripotent cell lines in various media. Cell populations were equally divided and plated on gelatin/vitronectin coated plates in the indicated growth medium in which these cell lines are normally maintained (mouse naive cells in a medium containing 2i/LIF, naive hESCs/iPSCs in a WIS-NHSM medium, mouse EpiSCs and human primed ESCS/iPSCs in a KSR/bFGF/TGFβmedium). 36 hours later the wells were supplemented with the indicated inhibitors or growth factors. After 14 days (2 passages), wells were analyzed for Oct4-GFP pluripotency marker expression by FACS, to determine the relative percentage of pluripotent colonies. Pluripotent cell frequency was normalized to an internal control, as indicated by “Growth medium” only on the far left column (For naive cells growth medium was WIS-NHSM, and for primed cells was conventional KSR/bFGF/TGFβcontaining medium as specified in methods). […]
(§2) FIGS. 108A-108C—Signaling and functional characteristics of human naive pluripotency. […] After 14 days (2 passages), wells were analyzed by OCT4 immunostaining of direct detection of OCT4-GFP pluripotency reporter expression, to determine the relative percentage of undifferentiated pluripotent cells. […] After 20 days, colonies positive for OCT4 pluripotency markers were counted and normalized to colonies from cells electroporated with empty vector. […]

The next test relates to primed hESCs/hiPSCs. It is filed as cell-based. As to conditions: primed human cells. On the procedure: as §1, §2
In another test the test system is naive mESCs. It is filed as cell-based, mouse. As to conditions: mESCs in 2i/LIF. As to the method:
as §1, §2

Regarding `CC(C)(C)c1nc2c3ccc(F)cc3c3c(=O)[nH]ccc3c2[nH]1` [JAKi], the figures for the “response of pluripotent state” value with naive hESCs/hiPSCs, in the test on primed hESCs/hiPSCs and in the test on naive mESCs were “differentiated”, “resistant” and “readily differentiate”, respectively.
